Tests used:
Cyclic voltammetry (CV) = assay type: physicochemical; conditions: about 1 mM in 1M sulfuric acid in water
Procedure: [drawing 47] (concentration about 1 mM in 1M sulfuric acid in water) was studied by cyclic voltammetry (CV).
[drawing 48] (concentration about 1 mM in 1M sulfuric acid in water) was studied by CV.
[drawing 50] (concentration about 1 mM in 1M sulfuric acid in water) was studied by CV.
[drawing 53] (concentration about 1 mM in 1M sulfuric acid in water) was studied by CV.

Solubility = assay type: physicochemical; conditions: pH 0

Molecule | redox peaks location, higher-potential set (Cyclic voltammetry (CV)) [V] | redox peaks location, lower-potential set (Cyclic voltammetry (CV)) [V] | solubility (Solubility) [mM]
O=C1c2ccccc2C(=O)c2c(O)c(S(=O)(=O)O)cc(O)c21 [Example 2, 1,4-dihydroxy-9,10-anthraquinone-3-sulfonic acid] | ~1.08 | ~0.11 | 
9,10-anthraquinone-2,7-disulfonate [Scheme 1 ID 1] |  |  | ~1000
O=C1c2ccccc2C(=O)c2c(O)c(SCCS(=O)(=O)O)c(SCCS(=O)(=O)O)c(O)c21 [Example 6, 2,2′-((1,4-dihydroxy-9,10-dioxo-9,10-dihydroanthracene-2,3-diyl)bis(sulfanediyl))bis(ethane-1-sulfonic acid)] | ~1.08 | ~0.11 | 
O=C1c2ccccc2C(=O)c2c1cc(S(=O)(=O)O)c(O)c2O [Example 3, 1,2-dihydroxy-9,10-anthraquinone-3-sulfonic acid] | ~1.3 | ~0.10 | 

From patent publication US10847829B2, “Quinone and hydroquinone based flow battery” (President and Fellows of Harvard College, priority 2013, dated 2020)
